Laboratory results reported in US20050032873A1, “3-Amino chroman and 2-amino tetralin derivatives” (Wyeth, priority 2003, published 2005).
Where two headings read alike, the source gives them in different places.

Assays:
5-HT1A receptor [1] = biological target: T1, 5-HT1A receptor (Homo sapiens, UniProt P08908); assay: cAMP accumulation assay, 5-HT1A function; assay type: cell-based; details: for EC50: cells marked EC50 (agonist); for Emax: in brackets after EC50 or IC50, read-out: 5-HT1A Function cAMP (Emax); for IC50: cells marked IC50 (antagonist), read-out: 5-HT1A Function cAMP IC50
T1 sequence (P08908 1-422): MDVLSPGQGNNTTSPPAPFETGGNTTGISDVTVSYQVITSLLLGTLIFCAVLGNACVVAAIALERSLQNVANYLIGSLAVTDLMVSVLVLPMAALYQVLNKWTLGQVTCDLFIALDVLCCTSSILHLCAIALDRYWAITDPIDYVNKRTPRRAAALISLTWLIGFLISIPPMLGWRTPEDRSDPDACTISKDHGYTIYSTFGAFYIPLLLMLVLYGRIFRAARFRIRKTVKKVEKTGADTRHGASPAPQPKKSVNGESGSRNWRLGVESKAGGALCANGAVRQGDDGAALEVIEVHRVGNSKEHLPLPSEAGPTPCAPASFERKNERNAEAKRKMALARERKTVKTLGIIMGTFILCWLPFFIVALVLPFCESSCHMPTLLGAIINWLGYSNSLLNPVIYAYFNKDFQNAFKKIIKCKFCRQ
From the text: The agonist or antagonist activity at 5-HT1A receptors was established by using two different assays. […] Agonists produce an increase in binding whereas antagonists produce no increase but rather reverse the effects of the standard agonist 8-OH-DPAT. The test compound's maximum stimulatory effect is represented as the Emax, while its potency is defined by the EC50. The test compound's maximum inhibitory effect is represented as the Imax, while its potency is defined by the IC50. The second assay measured cAMP accumulation upon binding of the ligand to the 5-HT1A receptor. […] The test compound's maximum stimulatory or inhibitory effect is represented as the Emax while its potency is defined by either IC50 for an antagonist or EC50 for an agonist. [^3H]-8-OH-DPAT was used to determine maximum agonist or antagonist response in both functional assays.

5-HT1A receptor [2] = biological target: T1, 5-HT1A receptor; assay: 5-HT1A receptor affinity: displacement of [3H] 8-OH-DPAT; assay type: binding; set-up: expressed in transfected cells; details: displacement of [3H] 8-OH-DPAT; CHO cells stably transfected with human 5-HT1A receptors; read-out: 5-HT1A Receptor Affinity Ki
[3] = biological target: T2, cloned human 5-HT1A receptors (Homo sapiens, UniProt P08908); assay: 35S-GTPγS binding assay, 5-HT1A function; assay type: biochemical; details: for EC50: agonist potency; for IC50: antagonist potency, reversal of 8-OH-DPAT, read-out: 5-HT1A Function GTPγS IC50
T2 construct: expressed in transfected cells
T2 sequence (P08908 1-422): T1 sequence (P08908 1-422)

serotonin transporter = biological target: T3, serotonin transporter (Rattus norvegicus, UniProt P31652); assay: 5-HT transporter affinity: displacement of 3H-paroxetine from male rat cortical membranes; assay type: binding; details: displacement of 3H-paroxetine; male rat cortical membranes; read-out: 5-HT Transporter Affinity Ki
T3 construct: displace ^3H-paroxetine from male rat cortical membranes; from tissue; host or cells: male rat cortical membranes

[4] = maximum stimulatory effect, in brackets after EC50, read-out: 5-HT1A Function GTPγS (Emax)
[5] = maximum inhibitory effect, in brackets after IC50, read-out: 5-HT1A Function GTPγS (Imax)

T3 sequence (P31652 whole entry): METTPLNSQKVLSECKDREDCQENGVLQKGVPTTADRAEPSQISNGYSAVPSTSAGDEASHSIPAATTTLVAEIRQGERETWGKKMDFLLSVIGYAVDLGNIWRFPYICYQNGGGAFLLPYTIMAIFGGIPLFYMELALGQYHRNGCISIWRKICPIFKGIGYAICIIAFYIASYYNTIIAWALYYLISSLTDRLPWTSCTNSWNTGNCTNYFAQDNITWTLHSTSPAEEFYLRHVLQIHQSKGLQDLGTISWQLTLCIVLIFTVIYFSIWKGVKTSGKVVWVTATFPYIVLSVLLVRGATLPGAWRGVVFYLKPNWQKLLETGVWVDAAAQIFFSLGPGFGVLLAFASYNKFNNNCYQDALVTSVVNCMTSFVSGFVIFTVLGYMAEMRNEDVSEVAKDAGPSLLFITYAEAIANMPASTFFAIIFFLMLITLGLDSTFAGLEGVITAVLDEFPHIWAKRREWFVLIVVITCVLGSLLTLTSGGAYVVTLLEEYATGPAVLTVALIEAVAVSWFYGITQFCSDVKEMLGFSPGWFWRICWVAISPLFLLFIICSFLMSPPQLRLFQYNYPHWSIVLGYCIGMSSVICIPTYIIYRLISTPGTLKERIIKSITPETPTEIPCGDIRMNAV

| Compound | EC50 (5-HT1A receptor [1]) | Emax (5-HT1A receptor [1]) | Ki (5-HT1A receptor [2]) | EC50 [3] | Emax [3, 4] | melting point | Ki (serotonin transporter) | IC50 [3] | Emax [3, 5] | IC50 (5-HT1A receptor [1]) |
| --- | --- | --- | --- | --- | --- | --- | --- | --- | --- | --- |
| NC(=O)c1cccc2c1CC(NCCCc1c[nH]c3ccc(F)cc13)CO2 (stereo not drawn) [Compound 133, 3-{[3-(5-fluoro-1H-indol-3-yl)propyl]amino}chromane-5-carboxamide] | 128 nM | 84% | 65.1 nM | 3000 nM | 100% | 153 to 155 °C | 23.6 nM | – | – | – |
| NC(=O)c1cccc2c1CC(N(CCCc1c[nH]c3ccc(F)cc13)C1CCC1)CO2 (stereo not drawn) [Compound 134, 3-{cyclobutyl[3-(5-fluoro-1H-indol-3-yl)propyl]amino}chromane-5-carboxamide] | 19.2 nM | 81% | 1.75 nM | 21.8 nM | 28% | 102 to 105 °C | 8.67 nM | 184 nM | 69% | – |
| COc1cccc2c(CCCNC3COc4c(F)ccc(C(N)=O)c4C3)coc12 (stereo not drawn) [Compound 161, 8-fluoro-3-{[3-(7-methoxy-1-benzofuran-3-yl)propyl]amino}chromane-5-carboxamide] | – | 0% | 43.5 nM | – | – | 163 to 166 °C | 234 nM | 3000 nM | 100% | 607 nM |
| COc1cccc2c(CCCCNC3COc4c(F)ccc(C(N)=O)c4C3)coc12 (stereo not drawn) [Compound 167, 8-fluoro-3-{[4-(7-methoxy-1-benzofuran-3-yl)butyl]amino}chromane-5-carboxamide] | – | 0% | 31.2 nM | – | – | 138 to 141 °C | 44.9 nM | 1820 nM | 100% | 136 nM |
